The NIST ThermoML archive (doi:10.1021/je060271a)
Values joined by “and” are separate entries in the source; they are usually repeats but may differ in a detail not shown here. Equal entries are not always repeated.

Conditions: 323.15 K, Liquid, Vibrating tube method

CCCCCC(=O)OCC(COC(=O)CCCCC)(COC(=O)CCCCC)COC(=O)CCCCC [pentaerythritol tetrahexanoate]
Conditions	mass density
1417.8 kPa	973.7 kg/m3
1423 kPa	973.6 kg/m3
1428.2 kPa	973.6 kg/m3
1434.7 kPa	973.7 kg/m3
1469.9 kPa	973.8 kg/m3
1475.5 kPa	973.7 kg/m3
1482.4 kPa	973.8 kg/m3
1487.6 kPa	973.7 kg/m3
1494.2 kPa	973.8 kg/m3
1505.5 kPa	973.8 kg/m3
1510.7 kPa	973.7 kg/m3
1517 kPa	973.8 kg/m3
1522.7 kPa	973.9 kg/m3
1529.6 kPa	973.7 kg/m3
1536.8 kPa	973.7 kg/m3
1600 kPa	973.8 kg/m3
1606.9 kPa	973.8 kg/m3
1612.8 kPa	973.9 kg/m3
1619 kPa	973.7 kg/m3
1626.3 kPa	973.9 kg/m3
1632.1 kPa	973.7 kg/m3
1639.4 kPa	973.9 kg/m3
1645.6 kPa	973.8 kg/m3
1653.1 kPa	973.9 kg/m3
1660 kPa	973.9 kg/m3
1667 kPa	973.8 kg/m3
1674.8 kPa	973.9 kg/m3
1682.8 kPa	973.8 kg/m3
1689 kPa	973.9 kg/m3
1695.8 kPa	973.9 kg/m3
1703.9 kPa	974 kg/m3
1710.5 kPa	973.9 kg/m3
1718.3 kPa	974 kg/m3
1725.1 kPa	973.9 kg/m3
1732.7 kPa	973.7 kg/m3
1739.2 kPa	973.8 kg/m3
1747.3 kPa	973.9 kg/m3
1753.9 kPa	973.9 kg/m3
1761.9 kPa	974 kg/m3
1770.6 kPa	973.9 kg/m3
1777.5 kPa	974 kg/m3
1896.8 kPa	974 kg/m3
1906.3 kPa	974 kg/m3
1914.3 kPa	974.1 kg/m3
1923.6 kPa	973.9 kg/m3
1931.8 kPa	974 kg/m3
1940.3 kPa	974 kg/m3
1947.8 kPa	974 kg/m3
1956.8 kPa	974.1 kg/m3
1966 kPa	974 kg/m3
1973.3 kPa	974 kg/m3
1981.3 kPa	974.1 kg/m3
1990.8 kPa	974.2 kg/m3
2115.6 kPa	974 kg/m3
2124.4 kPa	974.1 kg/m3
2134.6 kPa	974.2 kg/m3
2174 kPa	974.2 kg/m3
2184.9 kPa	974.2 kg/m3
2193.8 kPa	974.2 kg/m3
2203.2 kPa	974.3 kg/m3
2214.3 kPa	974.2 kg/m3
2223.5 kPa	974.3 kg/m3
2234.2 kPa	974.3 kg/m3
2245.5 kPa	974.4 kg/m3
2255 kPa	974.4 kg/m3
2264.6 kPa	974.2 kg/m3
2495.1 kPa	974.6 kg/m3
2505.3 kPa	974.6 kg/m3
2517.8 kPa	974.5 kg/m3
2528.6 kPa	974.4 kg/m3
2541.1 kPa	974.5 kg/m3
2553.7 kPa	974.6 kg/m3
2564.1 kPa	974.4 kg/m3
2574.7 kPa	974.3 kg/m3
2587.7 kPa	974.5 kg/m3
2599.7 kPa	974.4 kg/m3
2609.9 kPa	974.6 kg/m3
2622.2 kPa	974.5 kg/m3
2632.1 kPa	974.6 kg/m3
2642.3 kPa	974.5 kg/m3
2654.5 kPa	974.6 kg/m3
2664.9 kPa	974.6 kg/m3
2676.8 kPa	974.6 kg/m3
2689.2 kPa	974.6 kg/m3
2699.9 kPa	974.4 kg/m3
2710 kPa	974.6 kg/m3
2722.3 kPa	974.6 kg/m3
2732.8 kPa	974.6 kg/m3
2745.2 kPa	974.6 kg/m3
2758 kPa	974.5 kg/m3
2768.6 kPa	974.7 kg/m3
2779.1 kPa	974.7 kg/m3
2791.8 kPa	974.6 kg/m3
2801.9 kPa	974.7 kg/m3
2814.5 kPa	974.7 kg/m3
2827.5 kPa	974.6 kg/m3
2837.8 kPa	974.7 kg/m3
2849 kPa	974.6 kg/m3
2862 kPa	974.6 kg/m3
2872.9 kPa	974.7 kg/m3
2885.9 kPa	974.7 kg/m3
2910.2 kPa	974.8 kg/m3
2921.8 kPa	974.6 kg/m3
2946.6 kPa	974.8 kg/m3
2960 kPa	974.8 kg/m3
3369.6 kPa	975.1 kg/m3
3401.3 kPa	975.1 kg/m3
3416.4 kPa	975.1 kg/m3
3430.9 kPa	975.1 kg/m3
3448.4 kPa	975.1 kg/m3
3481 kPa	975.1 kg/m3
3512.7 kPa	975.1 kg/m3
3527.3 kPa	975.1 kg/m3
3544.2 kPa	975.1 kg/m3
3557.7 kPa	975.2 kg/m3
3574.4 kPa	975.2 kg/m3
3588.4 kPa	975.2 kg/m3
3605 kPa	975.1 kg/m3
3619.2 kPa	975.1 kg/m3
3805.2 kPa	975.3 kg/m3
3820 kPa	975.3 kg/m3
3837.5 kPa	975.4 kg/m3
3851.8 kPa	975.4 kg/m3
3869.3 kPa	975.5 kg/m3
3886.8 kPa	975.5 kg/m3
3901.9 kPa	975.4 kg/m3
3917 kPa	975.4 kg/m3
3935.3 kPa	975.5 kg/m3
3950.4 kPa	975.4 kg/m3
3968.8 kPa	975.5 kg/m3
3984.3 kPa	975.5 kg/m3
4002.9 kPa	975.4 kg/m3
4018.6 kPa	975.5 kg/m3
4034.4 kPa	975.4 kg/m3
4138.3 kPa	975.6 kg/m3
4157.9 kPa	975.5 kg/m3
4209.5 kPa	975.6 kg/m3
4228.7 kPa	975.6 kg/m3
4245.5 kPa	975.7 kg/m3
4265.2 kPa	975.6 kg/m3
4281.8 kPa	975.7 kg/m3
4301.8 kPa	975.7 kg/m3
4319.1 kPa	975.8 kg/m3
4339.5 kPa	975.8 kg/m3
4356.6 kPa	975.7 kg/m3
4377.1 kPa	975.8 kg/m3
4397.7 kPa	975.8 kg/m3
4414.6 kPa	975.8 kg/m3
4431.8 kPa	975.7 kg/m3
4453.1 kPa	975.7 kg/m3
4474 kPa	975.7 kg/m3
4491.8 kPa	975.8 kg/m3
4509.3 kPa	975.7 kg/m3
6215.6 kPa	977 kg/m3
6237.7 kPa	977 kg/m3
6256.2 kPa	977.1 kg/m3
6278.3 kPa	977.1 kg/m3
6297 kPa	977 kg/m3
6319.4 kPa	977.2 kg/m3
6338.8 kPa	977.1 kg/m3
6508.8 kPa	977.2 kg/m3
6532.7 kPa	977.2 kg/m3
6552.5 kPa	977.2 kg/m3
7405.8 kPa	977.7 kg/m3
7431 kPa	977.8 kg/m3
7486 kPa	977.8 kg/m3
7516.4 kPa	978 kg/m3
7547.5 kPa	977.8 kg/m3
7600 kPa	978 kg/m3
7657.3 kPa	978 kg/m3
7688 kPa	978 kg/m3
7711.5 kPa	978.1 kg/m3
7734.2 kPa	978.1 kg/m3
7761.5 kPa	978 kg/m3
7886.8 kPa	978.1 kg/m3
7915.3 kPa	978.1 kg/m3
7938.6 kPa	978.2 kg/m3
7966.7 kPa	978.2 kg/m3
7990.5 kPa	978.2 kg/m3
8019.5 kPa	978.3 kg/m3
8044.2 kPa	978.3 kg/m3
8073.3 kPa	978.1 kg/m3
8098.3 kPa	978.3 kg/m3
8128.9 kPa	978.3 kg/m3
8158.2 kPa	978.5 kg/m3
8182.5 kPa	978.3 kg/m3
8207.5 kPa	978.3 kg/m3
9038.7 kPa	978.9 kg/m3
9060.6 kPa	979.1 kg/m3
9078.3 kPa	978.9 kg/m3
9100 kPa	978.9 kg/m3
9123 kPa	978.9 kg/m3
9245.2 kPa	979 kg/m3
9267 kPa	979 kg/m3
9289.4 kPa	979.1 kg/m3
9308.6 kPa	979.1 kg/m3
9331.8 kPa	979.1 kg/m3
9354.9 kPa	979 kg/m3
9374.6 kPa	979.1 kg/m3
9395.3 kPa	979.1 kg/m3
9417.9 kPa	979.2 kg/m3
9435.5 kPa	979.1 kg/m3
9456.1 kPa	979.2 kg/m3
9473 kPa	979.2 kg/m3
9493.7 kPa	979.2 kg/m3
9510.8 kPa	979.3 kg/m3
9531.3 kPa	979.2 kg/m3
9552.1 kPa	979.3 kg/m3
9569.5 kPa	979.3 kg/m3
9590.4 kPa	979.3 kg/m3
9603.6 kPa	979.4 kg/m3
9617.2 kPa	979.3 kg/m3
9629.1 kPa	979.4 kg/m3
9642.9 kPa	979.3 kg/m3
9655.3 kPa	979.4 kg/m3
9669.9 kPa	979.3 kg/m3
9681.3 kPa	979.5 kg/m3
9694.7 kPa	979.3 kg/m3
9706.3 kPa	979.4 kg/m3
9735.4 kPa	979.4 kg/m3
9747.4 kPa	979.4 kg/m3
9762.1 kPa	979.4 kg/m3
9776.4 kPa	979.4 kg/m3
9788.2 kPa	979.5 kg/m3
9798.4 kPa	979.4 kg/m3
9804.9 kPa	979.4 kg/m3
9900.4 kPa	979.4 kg/m3
9910.4 kPa	979.4 kg/m3
9915.9 kPa	979.4 kg/m3
9925.7 kPa	979.6 kg/m3
9936.9 kPa	979.5 kg/m3
9949.3 kPa	979.5 kg/m3
9960.5 kPa	979.5 kg/m3
9987.7 kPa	979.6 kg/m3
9992.5 kPa	979.5 kg/m3
10032 kPa	979.7 kg/m3
10036 kPa	979.6 kg/m3 and 979.7 kg/m3
10106 kPa	979.7 kg/m3
10118 kPa	979.7 kg/m3
10128 kPa	979.6 kg/m3
10139 kPa	979.6 kg/m3
10152 kPa	979.6 kg/m3
10164 kPa	979.7 kg/m3
10182 kPa	979.6 kg/m3
10203 kPa	979.7 kg/m3
10219 kPa	979.8 kg/m3
10240 kPa	979.8 kg/m3
10257 kPa	979.7 kg/m3
10473 kPa	979.9 kg/m3
10503 kPa	979.9 kg/m3
10540 kPa	980 kg/m3
10575 kPa	979.9 kg/m3
10605 kPa	980 kg/m3
10670 kPa	980 kg/m3
10704 kPa	980 kg/m3
10737 kPa	980.1 kg/m3
10764 kPa	980.1 kg/m3
10956 kPa	980.2 kg/m3
10977 kPa	980.2 kg/m3
11001 kPa	980.3 kg/m3
11018 kPa	980.2 kg/m3
11037 kPa	980.2 kg/m3
11056 kPa	980.3 kg/m3
11071 kPa	980.4 kg/m3
11201 kPa	980.4 kg/m3
11204 kPa	980.4 kg/m3
11210 kPa	980.4 kg/m3
11217 kPa	980.4 kg/m3
11228 kPa	980.4 kg/m3
11243 kPa	980.4 kg/m3
11257 kPa	980.3 kg/m3
11280 kPa	980.5 kg/m3
11301 kPa	980.4 kg/m3
11327 kPa	980.5 kg/m3
11349 kPa	980.5 kg/m3
11374 kPa	980.6 kg/m3
11395 kPa	980.6 kg/m3
11421 kPa	980.6 kg/m3
11448 kPa	980.5 kg/m3
11470 kPa	980.5 kg/m3
11496 kPa	980.6 kg/m3
11518 kPa	980.6 kg/m3
11545 kPa	980.6 kg/m3
11572 kPa	980.5 kg/m3
11594 kPa	980.5 kg/m3
11621 kPa	980.6 kg/m3
11849 kPa	980.8 kg/m3
11899 kPa	980.9 kg/m3
11926 kPa	980.8 kg/m3
